This passage reports relative viability results from the supplement of paper PMC10307832.

What all share (assay): relative viability (nuclei count vs DMSO), 5 days (fraction); higher = more cells survive
Compound in assay [1]: C1COCCN1C2=NC(=NC3=C2OC4=C3C=CC=N4)C5=CC(=CC=C5)NC(=O)C6=CN=C(C=C6)N + N=C(N)NC(=N)NCCc1ccccc1 [Phenformin] (partner 250 µM)
Put shortly:
(§1)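 For relative viability, nuclei counts in treated wells were divided by those in vehicle wells. Lung cancer cell lines had been pin-tool dosed in 1536-well plates the day after seeding and cultured for 5 days, then fixed and stained in one step (final 0.05% Triton X-100, 1% formaldehyde, 1 ug/ml Hoechst) and imaged at 4×. Doses were one drug alone or a fixed anchor-drug dose plus five library-drug doses (not always all listed) in √10 steps, and values are duplicate-plate medians.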

Compound in assay [2]: C1COCCN1C2=NC(=NC3=C2OC4=C3C=CC=N4)C5=CC(=CC=C5)NC(=O)C6=CN=C(C=C6)N + Cc1nc(Nc2ncc(C(=O)Nc3c(C)cccc3Cl)s2)cc(N2CCN(CCO)CC2)n1 [Dasatinib] (partner 0.075 µM)
An outline of the steps: as §1

Compound in the assay “SGI-1776 + Foretinib”: CN1CCC(CNc2ccc3ncc(-c4cccc(OC(F)(F)F)c4)n3n2)CC1 [SGI-1776] + COc1cc2c(Oc3ccc(NC(=O)C4(C(=O)Nc5ccc(F)cc5)CC4)cc3F)ccnc2cc1OCCCN1CCOCC1 [Foretinib] (partner 0.25 µM)
Put shortly:
as §1

Compound in assay [3]: C1COCCN1C2=NC(=NC3=C2OC4=C3C=CC=N4)C5=CC(=CC=C5)NC(=O)C6=CN=C(C=C6)N + CC(C)C[C@H](NC(=O)[C@H](Cc1ccccc1)NC(=O)c1cnccn1)B(O)O [Bortezomib] (partner 0.002 µM)
Put shortly: as §1

As for UMC-11, the relative viability came to 0.302 in assay [1] (first compound 0.02 µM); 0.327 in assay [1] (first compound 0.06325 µM); 0.33 in assay [1] (first compound 0.2 µM); 0.308 in assay [1] (first compound 0.6325 µM); 0.204 in assay [1] (first compound 2 µM); 0.454 in assay [2] (first compound 0.02 µM). Also, the relative viability in assay [2] (first compound 0.06325 µM) came out at 0.519; in assay [2] (first compound 0.2 µM) it was 0.514; in assay [2] (first compound 0.6325 µM) it was 0.527; in assay [2] (first compound 2 µM) it was 0.266; in the assay with SGI-1776 + Foretinib (first compound 0.08 µM) it was 1.02; with SGI-1776 + Foretinib (first compound 0.8 µM) it was 1.03. Also, the relative viability with SGI-1776 + Foretinib (first compound 2.53 µM) amounted to 1.08; with SGI-1776 + Foretinib (first compound 8 µM), 0.791; in assay [3] (first compound 0.02 µM) it was 0.79; in assay [3] (first compound 0.06325 µM) it was 0.838; in assay [3] (first compound 0.2 µM) it was 0.669; in assay [3] (first compound 0.6325 µM), 1.08. Further, the relative viability in assay [3] (first compound 2 µM) worked out at 0.519.
